Laboratory results as given in patent US7678799B2 (Teva Pharmaceutical Industries Ltd., priority 2003, dated 2010).
Counter-ions that a name gives are not always drawn.

Experiments:
[1] = Storage stability at 25, 40 and 55° C., crystal form by XRD; type: physicochemical
Source text: (§1) Ziprasidone HCl Form M, however, converts to the anhydrous form under heating (see table 1 and FIG. 8) or exposure to 0% relative humidity (see table 6 and FIG. 10).
(§2) This crystalline form may be sesquihydrate.
(§3) X-Ray powder diffraction data were obtained using by method known in the art using a SCINTAG powder X-Ray diffractometer model X'TRA equipped with a solid state detector. Copper radiation of 1.5418 Å was used. A round aluminum sample holder with round zero background quartz plate, with cavity of 25(diameter)*0.5(dept) mm. Detection limit: 5%.

[2] = Storage at 0% relative humidity, crystal form by XRD; type: physicochemical; conditions: for transformed into Form M upon exposure to 0% relative humidity: 0% humidity, prolonged periods (such as 3 weeks)
Source text: (§4) In addition, no more than 5% of Form A transforms into Form M during heating and also during exposure to 0% relative humidity.
as §1, §2, §3

[3] = Specific surface area measurement (BET, Coulter SA3100); type: physicochemical; conditions: for Specific surface area: BET
Source text: Preferably, the SSA is about 5 to about 20 m^2/g.
Specific surface area measurement: • Instrument: Coulter SA3100 • Degassing: without • Sensitivity: high • Calculation: BET • Type: multipoint • Points: 10 • Sample cell: 9 and 12cm^3

[4] = Heating of crystalline ziprasidone HCl forms, crystal form by XRD; type: physicochemical; conditions: for Crystal form after heating at 80-105° C. overnight: HCl
Source text: as §4, §3

[5] = Slurry of Form A in water or ethanol, transformation to Form M; type: physicochemical
[6] = Equilibration of ziprasidone HCl form E at different relative humidities for 22 days (TGA, XRD); type: physicochemical; conditions: for TGA weight loss (water uptake) / Crystal form: 22 days
Description: The slurry temperature is preferably at least about 40° C. when using THF.
as §3
TGA analysis was done using a Mettler M3 meter. The weight of the samples was about 10 mg; the samples were scanned at a rate of 10° C./min from 25° C. to 200° C. The oven was constantly purged with nitrogen gas at a flow rate of 40 ml/min. Standard 70 μl alumina crucibles covered by lids with 1 hole were used.

[7] = cited from earlier work

O=C1Cc2cc(CCN3CCN(c4nsc5ccccc45)CC3)c(Cl)cc2N1 [Crystalline ziprasidone HCl having a water content of 4.6-6.]
transforms into Form M upon storage ([1]; 25, 40 and 55° C. for at least 3 months): No more than 5%
transformed into Form M upon exposure to 0% relative humidity ([2]; listed as solid crystalline ziprasidone HCl having a water content of about 4.6% to about ): No more than 5%

O=C1Cc2cc(CCN3CCN(c4nsc5ccccc45)CC3)c(Cl)cc2N1 [Example 15, ziprasidone HCl, reference compound]
Specific surface area ([3]; cell volume = 9 cm^3, HCl): 3.908 m^2/g
Specific surface area ([3]; cell volume = 9 cm^3, listed as Repetition of U.S. Pat. No. 6,150,366 procedure (comparative example 15), HCl): 3.908 m^2/g

O=C1Cc2cc(CCN3CCN(c4nsc5ccccc45)CC3)c(Cl)cc2N1 [Example 16, ziprasidone HCl]
Specific surface area ([3]; cell volume = 9 cm^3, HCl): 5.461 m^2/g
Specific surface area ([3]; cell volume = 9 cm^3, listed as Sample prepared according to example 16, HCl): 5.461 m^2/g

O=C1Cc2cc(CCN3CCN(c4nsc5ccccc45)CC3)c(Cl)cc2N1 [Example 17, ziprasidone HCl]
Specific surface area ([3]; cell volume = 12 cm^3, HCl): 14.646 m^2/g
Specific surface area ([3]; cell volume = 12 cm^3, listed as Sample prepared according to example 17, HCl): 14.646 m^2/g

O=C1Cc2cc(CCN3CCN(c4nsc5ccccc45)CC3)c(Cl)cc2N1 [Example 18, ziprasidone HCl]
Specific surface area ([3]; cell volume = 12 cm^3, HCl): 18.831 m^2/g
Specific surface area ([3]; cell volume = 12 cm^3, listed as Sample prepared according to example 18, HCl): 18.831 m^2/g

O=C1Cc2cc(CCN3CCN(c4nsc5ccccc45)CC3)c(Cl)cc2N1 [Example 19, ziprasidone HCl]
Specific surface area ([3]; cell volume = 9 cm^3, HCl): 11.335 m^2/g
Specific surface area ([3]; cell volume = 9 cm^3, listed as Sample prepared according to example 19, HCl): 11.335 m^2/g

O=C1Cc2cc(CCN3CCN(c4nsc5ccccc45)CC3)c(Cl)cc2N1 [Form A, ziprasidone HCl]
temperature of heating without a change in the crystal structure [4]: up to 140 °C
Crystal form after heating at 80-105° C. overnight [4]: Form A
Form A transformed into Form M during heating ([4]; heating): no more than 5%
specific surface area (SSA) ([3]; as measured by BET, general statement): higher than 4 m^2/g
transforms to Form M ([5]; ethanol slurry): 95%
Form A transformed into Form M ([5]; slurried in water): no more than 5%
transformed into Form M upon storage under accelerated aging conditions ([1]; 40° C., 75% RH, at least about 6 months): no more than 5%
transformed into Form M upon exposure to 0% relative humidity ([2]; HCl): no more than 5%
Crystal form upon storage at 0% relative humidity ([2]; HCl): Form A

O=C1Cc2cc(CCN3CCN(c4nsc5ccccc45)CC3)c(Cl)cc2N1 [Form E, ziprasidone HCl]
TGA weight loss (water uptake) ([6]; RH 0%): 5.3%
TGA weight loss (water uptake) ([6]; RH 20%): 7.2%
TGA weight loss (water uptake) ([6]; RH 40%): 4.8%
TGA weight loss (water uptake) ([6]; RH 60%): 5.0%
Crystal form ([6]; RH 80%): M + A
TGA weight loss (water uptake) ([6]; RH 80%): 9.2%
Crystal form ([6]; RH 100%): M + A + amorphous
crystal form after exposure to relative humidity ([6]; relative humidity of about 20% to about 60% for about 22 days): Form A

O=C1Cc2cc(CCN3CCN(c4nsc5ccccc45)CC3)c(Cl)cc2N1 [Form M, ziprasidone HCl, reference compound]
Crystal form after heating at 80-105° C. overnight [4]: Anhydrous
Crystal form upon storage at 0% relative humidity ([2]; HCl): Anhydrous

O=C1Cc2cc(CCN3CCN(c4nsc5ccccc45)CC3)c(Cl)cc2N1 [Repetition of U.S. Pat. No. 5,312,925 Example 2] [ziprasidone HCl, reference compound]
Specific surface area ([3]; cell volume = 9 cm^3, HCl): 3.909 m^2/g

O=C1Cc2cc(CCN3CCN(c4nsc5ccccc45)CC3)c(Cl)cc2N1 [Repetition of U.S. Pat. No. 6,150,366 Example 10] [ziprasidone HCl, reference compound]
Specific surface area ([3]; cell volume = 9 cm^3, HCl): 2.135 m^2/g

O=C1Cc2cc(CCN3CCN(c4nsc5ccccc45)CC3)c(Cl)cc2N1 [Ziprasidone HCl]
solubility in water [7]: 80 µg/mL
